Data on one compound can be found in US20100015727A1, “METHOD FOR DETERMINING TRANSPORT ACTIVITY OF A TRANSPORT PROTEIN” (BOEHRINGER INGELHEIM INTERNATIONAL GMBH, priority 2006, published 2010).

Usually IC50 stands for the concentration that inhibits the measured activity by half. Low values mean inhibition by little substance, high ones a need for much substance.

This assay deals with T1, MRP4 (Homo sapiens, UniProt O15439).
T1 construct: infected with a baculovirus construct containing the full-length cDNA encoding MRP4; made in house; host or cells: Hi5 or Sf9 insect cells (baculovirus)
T1 sequence (O15439 1-1325): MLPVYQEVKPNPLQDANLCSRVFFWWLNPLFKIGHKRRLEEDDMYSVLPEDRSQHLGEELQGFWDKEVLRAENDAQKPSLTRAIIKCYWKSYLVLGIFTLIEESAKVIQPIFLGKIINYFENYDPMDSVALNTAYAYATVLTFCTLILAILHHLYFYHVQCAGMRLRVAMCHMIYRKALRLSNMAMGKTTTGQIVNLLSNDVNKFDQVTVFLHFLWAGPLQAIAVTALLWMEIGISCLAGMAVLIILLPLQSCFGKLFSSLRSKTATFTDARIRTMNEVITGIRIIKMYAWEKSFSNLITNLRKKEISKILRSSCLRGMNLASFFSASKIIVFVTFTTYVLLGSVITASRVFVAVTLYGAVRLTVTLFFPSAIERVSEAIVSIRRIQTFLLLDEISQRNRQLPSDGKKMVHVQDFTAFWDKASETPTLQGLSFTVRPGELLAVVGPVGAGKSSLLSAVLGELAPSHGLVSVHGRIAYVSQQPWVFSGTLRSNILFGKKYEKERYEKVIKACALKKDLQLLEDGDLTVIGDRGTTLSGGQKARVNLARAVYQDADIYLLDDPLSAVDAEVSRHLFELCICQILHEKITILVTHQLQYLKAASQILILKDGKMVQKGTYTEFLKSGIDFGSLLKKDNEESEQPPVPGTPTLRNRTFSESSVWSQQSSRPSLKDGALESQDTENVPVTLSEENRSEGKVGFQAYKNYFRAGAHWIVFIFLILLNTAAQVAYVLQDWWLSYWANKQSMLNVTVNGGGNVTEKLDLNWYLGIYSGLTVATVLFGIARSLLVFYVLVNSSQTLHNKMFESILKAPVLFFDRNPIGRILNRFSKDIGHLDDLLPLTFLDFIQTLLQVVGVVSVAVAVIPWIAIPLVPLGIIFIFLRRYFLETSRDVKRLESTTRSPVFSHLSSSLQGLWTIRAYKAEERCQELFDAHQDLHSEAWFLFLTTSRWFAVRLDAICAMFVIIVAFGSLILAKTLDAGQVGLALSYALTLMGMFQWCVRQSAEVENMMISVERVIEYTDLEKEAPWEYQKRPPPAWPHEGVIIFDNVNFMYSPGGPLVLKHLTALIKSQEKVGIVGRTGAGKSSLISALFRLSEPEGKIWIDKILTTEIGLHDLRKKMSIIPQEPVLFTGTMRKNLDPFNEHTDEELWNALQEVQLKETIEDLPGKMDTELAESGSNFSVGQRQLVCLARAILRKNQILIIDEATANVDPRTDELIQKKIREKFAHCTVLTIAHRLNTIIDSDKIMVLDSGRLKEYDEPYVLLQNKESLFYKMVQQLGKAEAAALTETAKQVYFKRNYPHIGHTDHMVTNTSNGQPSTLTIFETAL
Briefly: SPA assay of MRP4 transport activity (3H-folic acid uptake into membrane vesicles). In kind it is biochemical. Conditions: inhibition of MRP4 transport of 3H-folic acid into membrane vesicles from baculovirus-infected insect cells; Protein A SPA beads, anti-MRP4 rabbit antiserum.

The structures appear in SMILES notation.

Protocol: • 1) Membrane vesicles from insect cells (Hi5 or Sf9) infected with a baculovirus construct containing the full-length cDNA encoding MRP4 are prepared as described by van Aubel et al. (van Aubel et al., 2002) with some modifications: Hi5 cells are cultured in suspension to a cell density of 1×10^6 cells/ml in Insect-Xpress serum free insect cell medium and infected with baculovirus construct containing the full-length cDNA encoding MRP4. Three days after infection, cells are collected by centrifugation at 3000 rpm for 10 min. […] Protein concentration of the membrane preparation is determined using standard methods, e.g. the BCA protein assay (Pierce, product number 23250). • 2) Determination of transport activity of MRP4: Membrane vesicles prepared in 1) are diluted in Tris/sucrose buffer to a concentration of 3.3 μg protein/μl. […] Luminescence signals are measured with the LEADSeeker or TopCount system after 30 min, 1 h, 2 h, 4 h, or up to 24 h. • 3) Calculation of inhibitory effect of a test compound: The relative transport activities of MRP4 determined in the presence of a test compound is calculated as percentage of luminescence determined in the presence of the test compound compared to luminescence determined in the absence of the test compound.

The compound `OCCN(CCO)c1nc(N2CCCCC2)c2nc(N(CCO)CCO)nc(N3CCCCC3)c2n1` [Dipyridamole] came in with an IC50 of 35 µM.
